Assay results as given in patent publication US12378178B2, “Oleic acid derivatives as treatments for Friedreich ataxia and inhibitors of ferroptosis” (THE TRUSTEES OF THE UNIVERSITY OF PENNSYLVANIA, priority 2019, dated 2025).
Entries after “also recorded” stand apart in the source; their conditions may differ.

What was measured:
[1] = system: mouse fibroblast I154F cell lines; experiment: Rescue of viability of murine I154F fibroblasts treated with FAC+BSO; details: for Relative to Oleic Acid: 1 = oleic acid, 0.5 = no rescue; for activity in FAC+BSO assay: following FAC+BSO treatment, concentration not given
[2] = system: human FRDA fibroblast line GM4078; experiment: Survival of human FRDA fibroblast line GM4078 treated with FAC and BSO; type: cell-based; details: for Relative to Oleic Acid (change in survival compared to cells treated with 40 μM oleic acid) / toxicity / activity in dose response: FAC and BSO; for toxicity: compound 40 μM; for activity in dose response: lower concentrations down to 5 μM; for activity: trifluoromethyl ketone and alcohol analogs
Protocol: To test the efficacy of the above compounds, they were tested at least at two different concentrations using human FRDA fibroblast line GM4078 treated with FAC and BSO and the change in survival compared to cells treated with 40 μM oleic acid was measured Table 2 has the results of the compounds tested at 40 μM.

[3] = system: murine fibroblast I154F cells; experiment: Rescue from erastin-induced ferroptosis, murine I154F fibroblast model; type: cell-based; details: 5 μM erastin for 48 h (erastin alone 44%)
[4] = system: human FRDA fibroblasts 3816; experiment: Rescue of human FRDA fibroblasts 3816 treated with erastin; type: cell-based; details: erastin 5 μM; for survival: 48 h (erastin alone 32%)
Protocol: Addition of O[…] at 5 μM was sufficient to increase survival to 50% (1.5 fold) and at 10 μM and 20 μM survival went up to 80 and 84% (2.5 and 2.6 fold) respectively (FIG. 2B).

PGC1-α = PGC1-α expression in human FRDA fibroblasts GM3816; type: cell-based; details: compound 16 μM; after 96 h
Protocol: Oleic acid, as well as other fatty acids of different length and degree of saturation, binds and activates the peroxisome proliferator-activated receptor gamma (PPAR-γ), a key regulator of glucose and lipid metabolism, which up-regulates PGC1-α, among other targets. Pioglitazone, a PPAR-γ agonist is a thiazolidinedione used to treat type-2 diabetes. […] Human FRDA fibroblasts GM3816 were treated with 10 μM pioglitazone and increased PGC1-α expression was measured starting at 48 h. The expression doubled at 96 h, a time frame sufficient for PGC1-α to have an effect in a typical FAC+BSO experiment, whereas 16 μM oleic acid increased PGC1-α expression only 1.4 fold after 96 h.

[5] = system: human FRDA fibroblasts 3816; experiment: Rescue of human FRDA fibroblasts 3816 treated with erastin; type: cell-based; details: for survival: 10 μM erastin for 24 h (85% cell death)
[6] = system: healthy human fibroblasts with frataxin knockdown; details: earlier work referred to in the text; cited from earlier work
[7] = system: immortalized human fibroblasts 3665-T cells; experiment: Survival of immortalized human fibroblasts 3665-T treated with FAC and BSO; type: cell-based; details: for survival: FAC and BSO (95% cell death)
Text: Stereospecific activity of the two enantiomers was confirmed using the immortalized human fibroblasts 3665-T cells, a more severe model of FRDA. […] (FIG. 2A).

lipoxygenases (Lox) = experiment: In vitro lipoxygenase activity assay; type: biochemical; details: compound at 1 nM and 10 nM; solubility problems precluded higher concentrations
Protocol: Oleic acid has been reported to inhibit soybean lipoxygenase, as well as human 15-lipoxygenase, by binding an allosteric site. […] Whether O[…] was inhibiting lipoxygenase activity was tested using an in vitro assay.

[8] = system: murine fibroblast I154F cells; experiment: Lipid peroxidation in murine fibroblast I154F cells; type: cell-based
Protocol: The basal level of lipid peroxides was tested in the murine fibroblast I154F cells compared to the parental line 2F1 and a detectable higher level of lipid peroxides was found in the cells containing a missense frataxin (FIG. 3A).

[9] = system: immortalized myoblast cell line transfected with a frataxin siRNA; experiment: Lipid peroxidation in immortalized myoblast cell line with frataxin siRNA knock-down; type: cell-based; details: compound 5 μM every 48 h post transfection
Protocol: Knocking-down frataxin in human fibroblasts results in increased lipid peroxidation, which could be easily measured when the cells were also treated with the ferroptosis inducer RSL-3. To test whether OA200R would be efficacious in the knock-down system, an immortalized myoblast cell line was transfected with a frataxin siRNA or a scrambled siRNA control. A 65% protein loss was achieved over 4 days and a statistically significant increase of lipid peroxidation (1.4 fold) compared to the cells transfected with a scrambled control.

CCCCCC/C=C\CCCCCCCC(=O)O [Palmitoleic Acid]
Relative to Oleic Acid ([1]; 20 μM): 0.73 ± 0.04 | efficacy in FAC+BSO assay ([1]; compound 40 μM): comparable to oleic acid | Relative to Oleic Acid ([1]; tested at 40 μM, <0.5 toxic): 0.77 ± 0.03

CCCCCCCC/C=C\CCCCCCCCCCCC(=O)O [Erucic add]
efficacy in FAC+BSO assay ([1]; compound 40 μM): comparable to oleic acid | Relative to Oleic Acid ([1]; tested at 40 μM, <0.5 toxic): 0.93 ± 0.07

CCCCCCCC/C=C\CCCCCCCC(O)C(F)(F)F (racemic) [[rac]-OA-200, (Z)-1,1,1-trifluorononadec-10-en-2-ol]
Relative to Oleic Acid (change in survival compared to cells treated with 40 μM oleic acid) ([2]; 10 μM printed beside the value): 0.67 ± 0.17 | potency in rescuing cell viability compared with oleic acid ([2]; cells treated with FAC and BSO, or with erastin): significantly more potent than oleic acid | toxicity [2]: slightly toxic | activity in dose response [2]: active

CCCCCCCCCCC/C=C\CCCCC(=O)O [Petrosenilic Acid]
efficacy in FAC+BSO assay ([1]; compound 40 μM): comparable to oleic acid | Relative to Oleic Acid ([1]; tested at 40 μM, <0.5 toxic): 0.74 ± 0.04

CCCCCCCCC1OC2(CCCCC2)OC1CCCCCCCC(=O)O (stereo not shown) [OA-95]
Relative to Oleic Acid (change in survival compared to cells treated with 40 μM oleic acid) ([2]; tested at 40 μM): 0.24 ± 0.04

CCCCCCCCC(O)C(O)CCCCCCCC(=O)O (stereo not shown) [OA-81]
Relative to Oleic Acid (change in survival compared to cells treated with 40 μM oleic acid) ([2]; tested at 40 μM): 0.14 ± 0.03

CCCCCCCC/C=C\CCCCCCCC(N)=O [Oleic Acid NH2]
Relative to Oleic Acid ([1]; tested at 40 μM, <0.5 toxic): 0.79 ± 0.13

CCCCCCCCC1OC1CCCCCCCC(=O)O (stereo not shown) [OA-50]
Relative to Oleic Acid (change in survival compared to cells treated with 40 μM oleic acid) ([2]; tested at 40 μM): 0.15 ± 0.02

CCCCCCCCCCCCCC(=O)O [Myristic Acid]
Relative to Oleic Acid ([1]; tested at 40 μM, <0.5 toxic): 0.11 ± 0.02

CCCCCCCCCC/C=C\CCCCCCCC(=O)O [Gadoleic acid]
efficacy in FAC+BSO assay ([1]; compound 40 μM): comparable to oleic acid | Relative to Oleic Acid ([1]; tested at 40 μM, <0.5 toxic): 0.77 ± 0.16

Heptadecenoic acid
Relative to Oleic Acid ([1]; 20 μM): 0.7 ± 0.05 | Relative to Oleic Acid ([1]; tested at 40 μM, <0.5 toxic): 0.83 ± 0.05

CCCCCCCC/C=C\CCCCCCCC(=O)O [Oleic Acid]
cell survival ([3]; compound 5 μM): 49% | cell survival ([3]; compound 10 μM): 55% | cell survival ([3]; compound 20 μM): 65% | increase of survival ([4]; compound 20 μM, 48 h): 1.5 fold | increase of PGC1-α expression (PGC1-α): 1.4 fold | rescue of cell viability ([5]; compound 40 μM, 10 μM erastin for 24 h): did not rescue cell viability | effect on cell survival ([1]; compound 16 μM, FAC+BSO): doubled cell survival | efficacy in FAC+BSO assay ([1]; compound 40 μM): doubled survival | EC50 ([1]; read-out: EC50 in the FAC+BSO in mouse fibroblasts assay, FAC+BSO): 23 µM | Relative to Oleic Acid ([1]; tested at 40 μM, <0.5 toxic): 1.03 ± 0.04

CCCCCCCCCCCCCCCCCC(=O)O [Stearic Acid]
effect on cell survival ([1]; compound 16 μM, FAC+BSO): no effect | Relative to Oleic Acid ([1]; tested at 40 μM, <0.5 toxic): 0.50 ± 0.06

CCCCCCCCCC(=O)O [Capric Acid]
activity in FAC+BSO assay [1]: inactive | Relative to Oleic Acid ([1]; tested at 40 μM, <0.5 toxic): 0.49 ± 0.09

CCCCCCCCC=CCCCCCCCC(=O)NO [OA310]
Relative to Oleic Acid ([1]; 10 μM): 1.04 ± 0.04

CCCCCCCCCCCCCCCC(=O)O [Palmitic Acid]
Relative to Oleic Acid ([1]; tested at 40 μM, <0.5 toxic): 0.18 ± 0.07

CCCCCC/C=C\CCCCCCCCC(O)C(F)(F)F (racemic) [[rac]-HA-200]
Relative to Oleic Acid (change in survival compared to cells treated with 40 μM oleic acid) ([2]; tested at 40 μM): 0.56 ± 0.03

CCCCCCCCC1OC(C)(C)OC1CCCCCCCC(=O)O (stereo not shown) [OA-90]
Relative to Oleic Acid (change in survival compared to cells treated with 40 μM oleic acid) ([2]; tested at 40 μM): 0.05 ± 0.02

CCCCC/C=C\C/C=C\C/C=C\CCCCC(=O)O [γ-linolenic Acid]
activity in FAC+BSO assay [1]: increased cell death | Relative to Oleic Acid ([1]; tested at 40 μM, <0.5 toxic): 0.16 ± 0.02

CCOC(=O)c1ccc(NC2CCCCC2)c(NCc2ccccc2)c1 [SRS11-92]
cell death associated with frataxin knockdown [6]: decreased the cell death

CCCCCCCC/C=C\CCCCCCCC(=O)OC [Oleic Acid OMe]
Relative to Oleic Acid ([1]; tested at 40 μM, <0.5 toxic): 0.95 ± 0.12

CCCCCCCCCCCC(=O)O [Lauric Acid]
activity in FAC+BSO assay [1]: inactive | Relative to Oleic Acid ([1]; tested at 40 μM, <0.5 toxic): 0.47 ± 0.12

CCCCCC/C=C\CCCCCCCCCC(=O)O [Cis-Vaccenic Acid]
efficacy in FAC+BSO assay ([1]; compound 40 μM): comparable to oleic acid | Relative to Oleic Acid ([1]; tested at 40 μM, <0.5 toxic): 1.00 ± 0.08

CCCCCCCC/C=C\CCCCCCC[C@@H](O)C(F)(F)F [OA200R, (R,Z)-1,1,1-trifluorononadec-10-en-2-ol]
potency of (R)-enantiomer relative to (S)-enantiomer ([2]; rescue of cell viability, assay not given): seven-fold | activity ([2]; assay not given): activity resides in the (R) enantiomer | survival ([7]; compound 10 μM): 25% | survival ([7]; compound 20 μM): 77% | survival ([7]; compound 40 μM): 95% | increase of survival ([4]; compound 5 μM, 48 h): 1.5 fold | survival ([4]; compound 5 μM): 50% | increase of survival ([4]; compound 10 μM, 48 h): 2.5 fold | survival ([4]; compound 10 μM): 80% | increase of survival ([4]; compound 20 μM, 48 h): 2.6 fold | survival ([4]; compound 20 μM): 84% | Lox enzymatic activity (lipoxygenases (Lox)): did not affect Lox enzymatic activity; also recorded: does not inhibit | concentration at which reduction of lipid peroxidation reached statistical significance [8]: 5 µM | lipid peroxidation ([8]; basal lipid peroxides): reduced lipid peroxidation in a dose-dependent manner | decreased lipid peroxidation [9]: 20% | survival ([5]; compound 5 μM): 48% | survival ([5]; compound 10 μM): 87% | survival ([5]; compound 20 μM): 88%

CCCCC/C=C\C/C=C\CCCCCCCC(=O)O [linoleic acid]
cell viability ([1]; compound 16 μM, FAC+BSO (alone 40% of control cells)): 30 % of control cells

CCCCCCCC/C=C\CCCCCCCC(=O)OCC [Oleic Acid OEt]
Relative to Oleic Acid ([1]; tested at 40 μM, <0.5 toxic): 0.77 ± 0.18

CCCCCCCC/C=C\CCCCCCCC(=O)C(F)(F)F [OA-210, (Z)-1,1,1-trifluorononadec-10-en-2-one]
Relative to Oleic Acid (change in survival compared to cells treated with 40 μM oleic acid) ([2]; 10 μM printed beside the value): 0.52 ± 0.13 | toxicity [2]: slightly toxic | activity in dose response [2]: active

CCCCCCCC/C=C\CCCCCCC[C@H](O)C(F)(F)F [S-isomer, (S,Z)-1,1,1-trifluorononadec-10-en-2-ol]
activity ([2]; assay not given): inactive | efficacy ([7]; compound 5 μM, FAC and BSO): inefficacious | survival ([7]; compound 20 μM): 10% | survival ([7]; compound 40 μM): 22% | activity ([4]; compound between 20 and 5 μM, 48 h): no activity | activity ([5]; any concentration, 10 μM erastin for 24 h): inactive

CCCCCC/C=C\CCCCCCCCC(=O)C(F)(F)F [HA-210]
Relative to Oleic Acid (change in survival compared to cells treated with 40 μM oleic acid) ([2]; tested at 40 μM): 0.35 ± 0.02

CCCCCCCC/C=C/CCCCCCCC(=O)O [Elaidic Acid]
efficacy in FAC+BSO assay ([1]; compound 40 μM): slightly toxic | efficacy in FAC+BSO assay ([1]; compound 160 μM): somehow effective | Relative to Oleic Acid ([1]; tested at 40 μM, <0.5 toxic): 0.30 ± 0.08
